Measured values as given in ChEMBL document CHEMBL1201862, “PubChem BioAssay data set” (2004).
Counter-ions that a name gives are not always drawn. The source made the active and inactive calls.

How the values were obtained:
[1] = Luminescence Cell-Based Dose Retest to Confirm Inhibitors of Cancer Stem Cells. [Related pubchem assays (depositor defined):AID2717, AID2721]; assay type: functional; conditions: Homo sapiens
Cytochrome P450 3A4 = Cytochrome P450 3A4 (Homo sapiens, UniProt P08684);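 note: CYP3A4 tested as one member of a cytochrome P450 panel screen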
Cytochrome P450 2C19 = Cytochrome P450 2C19 (Homo sapiens, UniProt P33261); test: Cytochrome panel assay with activity outcomes. Panel member name: p450-cyp2c19 Compounds with AC50 equal or less than 10 uM are considered active; assay type: functional
[2] = Luminescence Cell-Based Dose Confirmation HTS to Identify Inhibitors of Platelet Dense Granule Release. [Related pubchem assays: 1663 (Primary HTS), 1678 (Summary of Project)]; assay type: functional
[3] = target: Luciferin 4-monooxygenase (Photinus pyralis, UniProt P08659); test: inhibition of purified Photinus pyralis luciferase – biochemical, luminescence, dose response (AID 1891)
INS1 = test: INS-1E survival protection against cytokine death – cell-based, luminescence, retest, dose response (AID 449756); assay type: functional; conditions: Rattus norvegicus;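 note: cell death triggered by IL-1 beta plus TNF-alpha plus IFN-gamma mixture; protective hits raise ATP signal compared with cytokine alone wells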
Cytochrome P450 2C9 = Cytochrome P450 2C9 (Homo sapiens, UniProt P11712)
Protein RecA = target: T1, Protein RecA (Mycobacterium tuberculosis, UniProt P9WHJ3); test: Fluorescence Cell-Free Homogeneous Dose Retest to Identify Inhibitors of RecA-Intein Splicing Activity. [Related pubchem assays (depositor defined):AID2097, AID2223, AID489010, AID492950]; assay type: functional
T1 sequence (P9WHJ3 whole entry): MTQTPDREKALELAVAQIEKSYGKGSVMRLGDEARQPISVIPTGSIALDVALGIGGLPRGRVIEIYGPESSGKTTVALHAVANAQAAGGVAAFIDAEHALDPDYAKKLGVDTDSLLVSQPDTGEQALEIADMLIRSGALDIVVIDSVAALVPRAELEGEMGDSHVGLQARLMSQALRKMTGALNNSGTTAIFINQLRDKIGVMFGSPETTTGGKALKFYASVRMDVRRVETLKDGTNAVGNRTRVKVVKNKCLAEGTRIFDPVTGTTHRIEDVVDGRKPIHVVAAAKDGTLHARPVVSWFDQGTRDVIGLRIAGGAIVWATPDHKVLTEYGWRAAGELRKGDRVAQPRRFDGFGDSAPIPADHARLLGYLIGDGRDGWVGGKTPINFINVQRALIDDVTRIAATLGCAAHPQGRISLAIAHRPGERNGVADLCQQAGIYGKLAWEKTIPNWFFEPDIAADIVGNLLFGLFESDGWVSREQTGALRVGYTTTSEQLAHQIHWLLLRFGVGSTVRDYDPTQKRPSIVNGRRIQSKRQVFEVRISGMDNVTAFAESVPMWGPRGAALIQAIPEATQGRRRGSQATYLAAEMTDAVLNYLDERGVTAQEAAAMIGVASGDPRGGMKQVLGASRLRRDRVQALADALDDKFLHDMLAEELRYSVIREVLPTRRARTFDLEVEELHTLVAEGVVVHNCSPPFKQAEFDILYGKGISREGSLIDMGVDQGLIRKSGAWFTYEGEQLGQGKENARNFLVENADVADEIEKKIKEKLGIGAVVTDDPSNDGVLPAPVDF

[4] = target: T2, Replicative DNA helicase DnaB (Mycobacterium tuberculosis, UniProt P9WMR3); test: DnaB intein splicing inhibitors, dose response, biochemical, cell-free fluorescence (AID 449749); assay type: functional
T2 sequence (P9WMR3 whole entry): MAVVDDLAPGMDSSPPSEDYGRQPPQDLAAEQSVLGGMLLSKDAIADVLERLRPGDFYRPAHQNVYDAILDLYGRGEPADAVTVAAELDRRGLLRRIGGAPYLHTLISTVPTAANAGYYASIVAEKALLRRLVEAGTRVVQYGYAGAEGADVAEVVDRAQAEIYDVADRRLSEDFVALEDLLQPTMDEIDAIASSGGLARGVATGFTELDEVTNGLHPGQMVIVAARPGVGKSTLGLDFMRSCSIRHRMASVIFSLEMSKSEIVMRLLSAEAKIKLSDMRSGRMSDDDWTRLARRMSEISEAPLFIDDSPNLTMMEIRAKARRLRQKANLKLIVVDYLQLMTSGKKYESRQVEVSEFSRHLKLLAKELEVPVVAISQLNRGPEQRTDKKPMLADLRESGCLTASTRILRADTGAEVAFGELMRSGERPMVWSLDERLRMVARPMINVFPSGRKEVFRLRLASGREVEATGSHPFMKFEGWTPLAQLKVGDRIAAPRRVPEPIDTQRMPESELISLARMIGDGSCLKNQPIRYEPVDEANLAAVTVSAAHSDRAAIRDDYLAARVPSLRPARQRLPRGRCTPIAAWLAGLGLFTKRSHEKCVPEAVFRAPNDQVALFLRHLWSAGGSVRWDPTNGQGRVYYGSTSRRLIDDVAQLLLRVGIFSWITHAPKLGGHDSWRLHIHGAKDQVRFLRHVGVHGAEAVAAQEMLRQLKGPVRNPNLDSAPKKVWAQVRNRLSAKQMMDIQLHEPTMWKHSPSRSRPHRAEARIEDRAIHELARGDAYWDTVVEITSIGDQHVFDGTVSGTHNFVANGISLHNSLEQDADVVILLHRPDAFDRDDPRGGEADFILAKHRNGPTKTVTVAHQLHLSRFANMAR

Sequence of Luciferin 4-monooxygenase (P08659 whole entry): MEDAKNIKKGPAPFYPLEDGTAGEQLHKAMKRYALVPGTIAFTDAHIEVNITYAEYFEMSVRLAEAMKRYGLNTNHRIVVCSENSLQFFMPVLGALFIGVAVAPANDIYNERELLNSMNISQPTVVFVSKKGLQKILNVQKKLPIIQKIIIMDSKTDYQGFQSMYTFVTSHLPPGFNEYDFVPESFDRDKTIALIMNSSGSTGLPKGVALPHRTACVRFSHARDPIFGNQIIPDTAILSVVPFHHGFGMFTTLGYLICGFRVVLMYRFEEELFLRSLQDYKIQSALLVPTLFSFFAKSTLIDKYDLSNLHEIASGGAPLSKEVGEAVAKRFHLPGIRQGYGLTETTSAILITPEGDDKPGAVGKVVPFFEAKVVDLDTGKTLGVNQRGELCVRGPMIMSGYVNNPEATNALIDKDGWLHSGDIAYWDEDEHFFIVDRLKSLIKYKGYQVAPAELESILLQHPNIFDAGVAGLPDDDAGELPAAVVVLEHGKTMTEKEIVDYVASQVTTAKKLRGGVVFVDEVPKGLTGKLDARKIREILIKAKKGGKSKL
Sequence of Cytochrome P450 2C19 (P33261 whole entry): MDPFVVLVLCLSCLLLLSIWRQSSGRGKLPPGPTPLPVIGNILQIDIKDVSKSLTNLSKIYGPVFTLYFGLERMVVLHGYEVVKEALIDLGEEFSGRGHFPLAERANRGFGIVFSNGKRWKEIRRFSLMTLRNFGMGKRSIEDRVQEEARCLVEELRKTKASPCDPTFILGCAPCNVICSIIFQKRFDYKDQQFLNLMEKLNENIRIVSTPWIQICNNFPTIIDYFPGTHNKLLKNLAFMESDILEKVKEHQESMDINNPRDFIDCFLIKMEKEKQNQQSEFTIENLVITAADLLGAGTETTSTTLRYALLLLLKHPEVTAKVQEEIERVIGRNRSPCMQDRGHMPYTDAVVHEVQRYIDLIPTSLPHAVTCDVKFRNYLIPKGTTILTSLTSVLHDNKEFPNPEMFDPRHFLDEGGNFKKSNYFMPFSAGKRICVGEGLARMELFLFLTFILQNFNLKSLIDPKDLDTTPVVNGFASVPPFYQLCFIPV
Sequence of Cytochrome P450 3A4 (P08684 whole entry): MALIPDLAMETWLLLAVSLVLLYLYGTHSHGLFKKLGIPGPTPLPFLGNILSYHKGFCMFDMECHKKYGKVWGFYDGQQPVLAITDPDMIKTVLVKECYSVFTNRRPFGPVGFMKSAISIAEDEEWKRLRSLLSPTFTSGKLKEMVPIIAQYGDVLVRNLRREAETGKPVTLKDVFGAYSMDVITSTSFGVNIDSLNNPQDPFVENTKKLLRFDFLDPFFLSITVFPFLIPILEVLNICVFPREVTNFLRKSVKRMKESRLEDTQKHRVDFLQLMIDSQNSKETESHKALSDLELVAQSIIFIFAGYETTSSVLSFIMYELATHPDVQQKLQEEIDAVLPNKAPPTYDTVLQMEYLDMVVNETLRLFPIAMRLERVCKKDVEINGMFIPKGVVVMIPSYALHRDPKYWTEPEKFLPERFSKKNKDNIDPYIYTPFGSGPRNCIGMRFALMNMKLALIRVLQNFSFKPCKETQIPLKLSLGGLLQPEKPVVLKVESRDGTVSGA
Sequence of Cytochrome P450 2C9 (P11712 whole entry): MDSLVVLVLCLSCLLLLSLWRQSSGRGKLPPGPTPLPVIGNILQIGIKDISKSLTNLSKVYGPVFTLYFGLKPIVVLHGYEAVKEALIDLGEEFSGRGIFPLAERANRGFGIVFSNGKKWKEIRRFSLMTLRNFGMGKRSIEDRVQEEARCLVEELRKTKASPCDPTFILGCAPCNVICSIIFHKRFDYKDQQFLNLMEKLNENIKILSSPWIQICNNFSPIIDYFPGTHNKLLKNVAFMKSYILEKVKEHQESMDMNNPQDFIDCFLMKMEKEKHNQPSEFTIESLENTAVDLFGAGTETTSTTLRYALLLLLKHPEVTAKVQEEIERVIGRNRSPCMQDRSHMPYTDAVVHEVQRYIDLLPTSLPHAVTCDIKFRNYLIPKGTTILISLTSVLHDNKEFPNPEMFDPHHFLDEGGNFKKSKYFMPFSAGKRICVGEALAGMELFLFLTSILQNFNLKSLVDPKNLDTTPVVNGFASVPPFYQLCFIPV

With `COC(=O)c1ccc(/C=C/c2c(-c3ccc(OC)cc3)oc3ccc(N4CCOCC4)cc23)cc1` the AC50 [1] was 2 µM (active).
In the case of `O=C(/C=C/c1ccco1)NCC1OCCc2ccccc21` (stereo not given), the AC50 [1] is reported as > 195 µM (inactive).
In the case of `C[Se]C[C@@H](N)C(=O)O`, the AC50 (Cytochrome P450 3A4) is reported as 1.26 µM (inconclusive) and the AC50 (Cytochrome P450 2C19) is reported as “inconclusive”.
With `COc1cc2cc(CN(CCCO)S(=O)(=O)c3ccccc3Cl)c(O)nc2cc1OC` the AC50 (Cytochrome P450 2C19; read-out: AC50) was 39.8 µM (inconclusive).
In the case of `O=C(Nc1ccc(S(=O)(=O)NCc2ccco2)cc1)c1ccc(F)cc1`, the EC50 [2] is reported as > 112 µM (not active) and the EC50 [3] is reported as > 112 µM (not active).
With `N=C1O[C@@H](c2c[nH]c3ccc(OCc4ccccc4)cc23)C(O)=C1O` the AC50 (Cytochrome P450 3A4) was 3.16 µM (inconclusive) and the AC50 (Cytochrome P450 2C19; read-out: AC50) was 6.31 µM (inconclusive).
For `S=C(Nc1ccccc1Cl)N(CCCN1CCOCC1)Cc1ccco1`, the EC50 [2] was > 112 µM (not active) and the EC50 [3] was > 112 µM (not active).
For `CCOC(=O)C1CCCN(C(=O)C2CCN(S(=O)(=O)N3CCC4(CC3)OCCO4)CC2)C1` (stereo not given), the AC50 (Cytochrome P450 3A4) was 20 µM (inconclusive) and the AC50 (Cytochrome P450 2C19; read-out: AC50) was 35.5 µM (inconclusive).
For `CCC(C)OC(=O)C1=C(C)OC23OC(N)=C(C#N)C12C(=O)c1ccccc13` (stereo not given), the EC50 [2] was > 112 µM (not active) and the EC50 [3] was > 112 µM (not active).
In the case of `Cc1ccc(S(=O)(=O)Nc2ccc(C(OC(=O)c3ccccc3[N+](=O)[O-])(C(F)(F)F)C(F)(F)F)cc2)cc1`, the AC50 [1] is reported as 6.11 µM (active) and the AC50 (INS1) is reported as 14.3 µM (active).
For `O=C(c1ccccc1NS(=O)(=O)c1cccc([N+](=O)[O-])c1)N1CCOCC1`, the AC50 (Cytochrome P450 3A4) was 17.8 µM (inconclusive) and the AC50 (Cytochrome P450 2C9) was 7.94 µM (inconclusive).
For `C#CCOc1ccc(OC)cc1C(c1c(C)n[nH]c1O)c1c(C)n[nH]c1O`, the EC50 (Protein RecA) was 0.187 µM (active) and the AC50 [4] was 0.405 µM (active).
For `C[C@H](CO)N1C[C@H](C)[C@H](CN(C)Cc2ccc(-c3ccccc3)cc2)Oc2ccc(NS(=O)(=O)c3ccccc3)cc2CC1=O`, the AC50 [1] was 5.07 µM (active).
In the case of `Cc1cccc(/N=C2\C(Cl)=C(O)OC2OC(=O)c2ccco2)c1` (stereo not given), the EC50 (Protein RecA) is reported as 12.9 µM (active) and the AC50 [4] is reported as 13.8 µM (active).
For `CCOc1ccc(/C=N/NC(=O)c2ccoc2C)cc1OC`, the EC50 [2] was 6.04 µM (active) and the EC50 [3] was 28.3 µM (active).
For `O=C(Nc1ccccc1C(=O)N/N=C/c1ccco1)c1ccc(Cl)cc1`, the EC50 [2] was 10.9 µM (active) and the EC50 [3] was 0.192 µM (active).
In the case of `CC(/C=C/c1ccco1)=N/NC(=O)c1ccccc1Cl`, the AC50 (Cytochrome P450 3A4) is reported as 31.6 µM (inconclusive) and the AC50 (Cytochrome P450 2C19; read-out: AC50) is reported as 39.8 µM (inconclusive).
In the case of `Cn1cc(/C=N/n2cnc3sc4c(c3c2=O)CCCC4)c2ccccc21`, the AC50 (Cytochrome P450 3A4) is reported as 22.4 µM (inconclusive) and the AC50 (Cytochrome P450 2C9) is reported as 39.8 µM (inconclusive).
With `CCc1[nH]nc2c1C(Cc1ccccc1)C(C#N)=C(N)O2` (stereo not given) the EC50 (Protein RecA) was 6.37 µM (active) and the AC50 [4] was 22.3 µM (active).
With `Cc1c(O)cccc1C(=O)N[C@@H](CSc1ccccc1)[C@H](O)CN1C[C@H]2CCCC[C@H]2C[C@H]1C(=O)NC(C)(C)C` [NELFINAVIR MESYLATE] the AC50 [1] was 4.22 µM (active).
